The source of these data is patent publication US11236072B2, “N-[(pyrimidinylamino)propanyl]-,n-[pyridylamino)propanyl]- and n-[(pyrazinylaminol)propanyl]arylcarboxamides” (Boehringer Ingelheim International GmbH, priority 2017, dated 2022).

In general, IC50 refers to the concentration that gives 50% inhibition.

System in the first data set: not listed separately
Description: Assay C: metabolic stability in human liver microsomes (Human MST). The settings on record: pH 7.6; pooled human liver microsomes, 1 μM compound, 37° C.; read-out: Human MST t1/2. The class given is in vitro ADME. The text has this:
Stability in human liver microsomes refers to the susceptibility of compounds to biotransformation in the context of selecting and/or designing drugs with favorable pharmacokinetic properties. The primary site of metabolism for many drugs is the liver. Human liver microsomes contain the cytochrome P450s (CYPs), and thus represent a model system for studying drug metabolization in vitro. Enhanced stability in human liver microsomes is associated with several advantages, including increased bioavailability and longer half-life, which can enable lower and less frequent dosing of patients. Thus, enhanced stability in human liver microsomes is a favorable characteristic for compounds that are to be used for drugs.
C. Assessment of Metabolic Stability in Human Liver Microsomes (Human MST)
The metabolic stability of the compounds according to the invention may be investigated as follows:
The metabolic degradation of the test compound is assayed at 37° C. with pooled human liver microsomes. The final incubation volume of 100 μL per time point contains TRIS buffer pH 7.6 at room temperature (0.1 M), MgCl2 (5 mM), microsomal protein (1 mg/mL) and the test compound at a final concentration of 1 μM. Following a short pre-incubation period at 37° C., the reactions are initiated by addition of beta-nicotinamide adenine dinucleotide phosphate, reduced form (NADPH, 1 mM), and terminated by transferring an aliquot into solvent after different time points. After centrifugation (10000 g, 5 min), an aliquot of the supernatant is assayed by LC-MS/MS for the amount of parent compound. The half-life (t1/2) is determined by the slope of the semi-logarithmic plot of the concentration-time profile.
(Liver microsomes are a subcellular fraction often used to study metabolism.)
As to `CCN(C(=O)c1cc(Cl)ccc1-n1nccn1)[C@@H](C)CNc1cnc(C(F)(F)F)cn1` [Example 10], the half-life at 1 μM stood at 2.17 h.

Turning to `CCN(C(=O)c1cc(F)cnc1-n1nccn1)[C@@H](C)CNc1ccc(C(F)(F)F)cn1` [Example 12], the half-life at 1 μM is 0.733 h.

Consider `CCN(C(=O)c1cccc(F)c1-n1nccn1)[C@@H](C)CNc1ncc(C(F)(F)F)cc1C#N` [Example 7], for which the half-life at 1 μM amounted to 1.48 h.

As to `CC[C@@H](CNc1ncc(C(F)(F)F)cn1)N(C)C(=O)c1c(F)cccc1-n1nccn1` [Ex 91 in WO2016/ 034882], the half-life at 1 μM is > 2.17 h.

Another data set deals with T1, OX2R (Homo sapiens, UniProt O43614).
T1 sequence (O43614 1-444): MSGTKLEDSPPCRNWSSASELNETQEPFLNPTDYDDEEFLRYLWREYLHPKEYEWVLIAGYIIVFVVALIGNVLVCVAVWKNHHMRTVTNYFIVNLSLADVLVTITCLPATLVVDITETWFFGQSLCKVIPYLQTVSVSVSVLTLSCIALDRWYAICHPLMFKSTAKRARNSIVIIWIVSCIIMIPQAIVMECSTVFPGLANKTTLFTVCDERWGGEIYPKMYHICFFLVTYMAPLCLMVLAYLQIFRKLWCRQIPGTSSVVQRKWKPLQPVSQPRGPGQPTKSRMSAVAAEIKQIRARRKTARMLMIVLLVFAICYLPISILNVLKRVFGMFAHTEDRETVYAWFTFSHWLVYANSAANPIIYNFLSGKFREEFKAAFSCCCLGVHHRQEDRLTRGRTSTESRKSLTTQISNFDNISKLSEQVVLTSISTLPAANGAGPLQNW
Assay: not given
The settings on record: Table 2 of WO2016/034882, corresponds to pIC50; cited from earlier work.
Take `CC[C@@H](CNc1ncc(C(F)(F)F)cn1)N(C)C(=O)c1nc(C)ccc1-n1nccn1` [Ex 46 in WO2016/ 034882]: the 50% inhibitory concentration (IC50) is > 10000 nM.

The data set is the same for the next values; noted with them: Table 2 of WO2016/034882; cited from earlier work.
As for `CC[C@@H](CNc1ncc(C(F)(F)F)cn1)N(C)C(=O)c1nc(C)ccc1-n1nccn1` [Ex 46 in WO2016/ 034882], the “OX2R pIC50” value is < 5.0.

The same data set, now with this note: Table 3 of WO2016/034882, corresponds to pIC50; cited from earlier work.
`CC[C@@H](CNc1ncc(C(F)(F)F)cn1)N(CC)C(=O)c1nc(C)ccc1-n1nccn1` [Ex 73 in WO2016/ 034882]: the half-maximal inhibitory concentration (IC50) was > 1000 nM.

`CC[C@@H](CNc1ncc(C(F)(F)F)cn1)N(C)C(=O)c1nc(C)ccc1-n1nccn1` [Ex 46 in WO2016/ 034882]: the IC50 is ≥ 10000 nM.

As for `CC[C@@H](CNc1ncc(C(F)(F)F)cn1)N(C)C(=O)c1c(F)cccc1-n1nccn1` [Ex 91 in WO2016/ 034882], the 50% inhibitory concentration (IC50) is ≥ 7590 nM.

The data set is the same for the next values; noted with them: Table 3 of WO2016/034882; cited from earlier work.
As to `CC[C@@H](CNc1ncc(C(F)(F)F)cn1)N(CC)C(=O)c1nc(C)ccc1-n1nccn1` [Ex 73 in WO2016/ 034882], the “OX2R pIC50” value is reported as < 6.0.

For the compound `CC[C@@H](CNc1ncc(C(F)(F)F)cn1)N(C)C(=O)c1nc(C)ccc1-n1nccn1` [Ex 46 in WO2016/ 034882], the “OX2R pIC50” value is given as < 5.0.

Turning to `CC[C@@H](CNc1ncc(C(F)(F)F)cn1)N(C)C(=O)c1c(F)cccc1-n1nccn1` [Ex 91 in WO2016/ 034882], the “OX2R pIC50” value is < 5.1.

For the next data set, the system named is human MDR1 P-gp. In words: Assay D: efflux in MDCK cells transfected with the human MDR1 gene. Format: in vitro ADME, canine. The settings on record: dog; MDCK-MDR1 monolayers, pH 7.4, 37° C.; read-out: MDCK efflux ratio (BA/AB). The protocol:
The MDCK assay provides information on the potential of a compound to pass the blood brain barrier. Permeability measurements across polarized, confluent MDCK-MDR1 cell monolayers grown on permeable filter supports are used as an in vitro absorption model: apparent permeability coefficients (PE) of the compounds across the MDCK-MDR1 cell monolayers are measured (pH 7.4, 37° C.) in apical-to-basal (AB) and basal-to-apical (BA) transport direction. […] Identical or similar permeabilities in both transport directions indicate passive permeation, vectorial permeability points to additional active transport mechanisms. Higher PEBA than PEAB (PEBA/PEAB>5) indicates the involvement of active efflux mediated by MDR1 P-gp, which might compromises the goal to achieve sufficient brain exposure. Therefore this assay provides valuable support for selection of compounds applicable for further in vivo testing. High permeability not limited by efflux at the blood brain barrier is a favourable characteristic for compounds that are to be used for drugs acting primarily in the CNS
D. Assessment of Efflux in Madin-Darby Canine Kidney (MDCK) Cells Transfected with the Human MDR1 Gene
Apparent permeability coefficients (PE) of the compounds across the MDCK-MDR1 cell monolayers are measured (pH 7.4, 37° C.) in apical-to-basal (AB) and basal-to-apical (BA) transport direction. […] The compounds are assigned to permeability/absorption classes by comparison of the AB permeabilities with the AB permeabilities of reference compounds with known in vitro permeability and oral absorption in the human. Identical or similar permeabilities in both transport directions indicate passive permeation, vectorial permeability points to additional active transport mechanisms. Higher PEBA than PEAB indicates the involvement of active efflux mediated by MDR1 P-gp. Active transport is concentration-dependently saturable.
MDCK-MDR1 cells (1-2×10e5 cells/1 cm2 area) are seeded on filter inserts (Costar transwell polycarbonate or PET filters, 0.4 μm pore size) and cultured (DMEM) for 7 days. Subsequently, the MDR1 expression is boosted by culturing the cells with 5 mM sodium butyrate in full medium for 2 days. Compounds are dissolved in appropriate solvent (like DMSO, 1-20 mM stock solutions). Stock solutions are diluted with HTP-4 buffer (128.13 mM NaCl, 5.36 mM KCl, 1 mM MgSO4, 1.8 mM CaCl2, 4.17 mM NaHCO3, 1.19 mM Na2HPO4×7H2O, 0.41 mM NaH2PO4×H2O, 15 mM HEPES, 20 mM glucose, 0.25% BSA, pH 7.4) to prepare the transport solutions (0.1-300 μM compound, final DMSO<=0.5%). The transport solution (TL) is applied to the apical or basolateral donor side for measuring A-B or B-A permeability (3 filter replicates), respectively. The receiver side contains the same buffer as the donor side. Samples are collected at the start and end of experiment from the donor and at various time intervals for up to 2 hours also from the receiver side for concentration measurement by HPLC-MS/MS or scintillation counting. Sampled receiver volumes are replaced with fresh receiver solution.
For the compound `CCN(C(=O)c1cc(Cl)ccc1-n1nccn1)[C@@H](C)CNc1cnc(C(F)(F)F)cn1` [Example 10], the efflux ratio is < 3.

As to `CCN(C(=O)c1cc(F)cnc1-n1nccn1)[C@@H](C)CNc1ccc(C(F)(F)F)cn1` [Example 12], the efflux ratio fell in the range of 3 to 5.5.

For `CCN(C(=O)c1cccc(F)c1-n1nccn1)[C@@H](C)CNc1ncc(C(F)(F)F)cc1C#N` [Example 7], the efflux ratio is < 3.

The next data set deals with T1, OX2R. Description: In vitro OX2R potency as reported in WO2016/034882. The settings on record: Table 1 of WO2016/034882.
`CC[C@@H](CNc1ncc(C(F)(F)F)cn1)N(C)C(=O)c1nc(C)ccc1-n1nccn1` [Ex 46 in WO2016/ 034882]: the “OX2R IC50/OX1R IC50” value came to 390.

Regarding `CC[C@@H](CNc1cnc(C(F)(F)F)cn1)N(C)C(=O)c1cc(Cl)ccc1-n1nccn1` [Ex 40 in WO2016/ 034882], the “OX2R IC50/OX1R IC50” value is reported as “Table 1: 156”.

The same data set, now with this note: Table 2 of WO2016/034882.
With `CC[C@@H](CNc1ncc(C(F)(F)F)cn1)N(C)C(=O)c1nc(C)ccc1-n1nccn1` [Ex 46 in WO2016/ 034882], the “OX2R IC50/OX1R IC50” value is given as > 312.

The same data set, now with this note: Table 3 of WO2016/034882.
On to `CC[C@@H](CNc1ncc(C(F)(F)F)cn1)N(C)C(=O)c1nc(C)ccc1-n1nccn1` [Ex 46 in WO2016/ 034882], for which the “OX2R IC50/OX1R IC50” value worked out at 3200.

The target of the next data set is T2, human Orexin 1 receptor (Homo sapiens, UniProt O43613).
T2 sequence (O43613 1-425): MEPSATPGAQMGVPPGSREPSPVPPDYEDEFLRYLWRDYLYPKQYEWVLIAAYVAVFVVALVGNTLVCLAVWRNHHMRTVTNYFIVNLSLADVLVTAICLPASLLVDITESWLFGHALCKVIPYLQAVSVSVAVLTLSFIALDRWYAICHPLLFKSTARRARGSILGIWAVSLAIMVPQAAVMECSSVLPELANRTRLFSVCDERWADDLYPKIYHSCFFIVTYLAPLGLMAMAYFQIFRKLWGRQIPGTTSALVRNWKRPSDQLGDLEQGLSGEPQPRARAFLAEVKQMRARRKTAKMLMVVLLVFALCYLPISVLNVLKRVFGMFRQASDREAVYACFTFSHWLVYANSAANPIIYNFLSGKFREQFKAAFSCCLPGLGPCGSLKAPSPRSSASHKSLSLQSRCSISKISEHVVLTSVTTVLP
In words: Assay A: in vitro testing of OX1R potency, OX1R IP1. The class given is cell-based. The settings on record: 50 nM Orexin A concentration. The text has this:
Chem. Genomics 2009, 3, 22-32.
A. In Vitro Testing of OX1R Potency: OX1R IP1
`CCN(C(=O)c1cc(Cl)ccc1-n1nccn1)[C@@H](C)CNc1cnc(C(F)(F)F)cn1` [Example 10] displayed a Kb of 0.011 nM.

The compound `CCN(C(=O)c1cc(F)cnc1-n1nccn1)[C@@H](C)CNc1ccc(C(F)(F)F)cn1` [Example 12] displayed a Kb of 0.156 nM.

On to `CCN(C(=O)c1cccc(F)c1-n1nccn1)[C@@H](C)CNc1ncc(C(F)(F)F)cc1C#N` [Example 7], for which the Kb is 0.021 nM.

The data set is the same for the next values; noted with them: compared to Example 40 in WO2016/034882.
In the case of `CCN(C(=O)c1cc(Cl)ccc1-n1nccn1)[C@@H](C)CNc1cnc(C(F)(F)F)cn1` [Example 10], the “better potency (OX1R)” value amounted to 16 fold.

Staying with this data set, now noted: compared to Example 73 in WO2016/034882.
Consider `CCN(C(=O)c1cc(F)cnc1-n1nccn1)[C@@H](C)CNc1ccc(C(F)(F)F)cn1` [Example 12], for which the “higher potency (OX1R)” value is recorded as “approximately 2 fold”.
